Experimental data as given in patent US12415839B2, “IgE epitope-like peptides and uses thereof” (Univerza v Ljubljani, priority 2018, dated 2025).

These substances were tested on IgE of peanut allergic patients (assay: Immunodot assay with sera of peanut allergic patients). Details: peptide-pIII fusion proteins spotted on nitrocellulose, patient sera diluted 1:10, FIG. 3.
Assay type: binding, human
Procedure: Three selected IgE epitope-like peptides (ELP 2, ELP 5, ELP 6) were extracted as recombinant fusions with bacteriophage minor coat protein pIII from the periplasm of host bacteria with osmotic shock. Two target-unrelated control peptides also fused to protein pIII (binders to streptavidin and human leptin) were extracted in the same way and served as negative controls (C1, C2). Briefly, E. coli host bacteria were infected with individual phage clones and grown for 2 hours at 37° C. with agitation. Bacteria pellets were spun down at 5000×g for 10 min and resuspended in 1 ml of an ice-cold solution consisting of 20% sucrose, 200 mM Tris-HCl pH 8.0 and 1 mM EDTA supplemented with protease inhibitor cocktail (EZBlock™, BioVision, San Francisco, USA) at a dilution of 1:200. After 1 h incubation on ice with occasional stirring supernatants were harvested by centrifugation at 12000×g for 20 minutes at 4° C. Resulting periplasmic extracts containing […] fusion proteins were concentrated (4-5 fold) and sucrose buffer exchanged for PBS by ultrafiltration with 10 kDa cut-off membrane (Microsep Advance Centrifugal Device, Pall Corporation, New York, USA). For immunoprecipitation of each selected peptide, 20 μg of affinity purified rabbit IgG against Ara h 2 (INDOOR Biotechnologies, Charlottesville, Virginia, USA) were covalently coupled to 1 mg of Dynabeads M-280 Tosylactivated™ (Thermo Fisher Scientific) according to manufacturer's protocol. Control peptides were immunoprecipitated in the same way using 10 μg of anti-human leptin antibody (R and D Systems Cat #MAB398 RRID:AB_2136056) coupled to 1 mg of Dynabeads M-280 Tosylactivated™ in the case of peptide with the affinity toward human leptin and 0.5 mg of streptavidin-coupled beads (Dynabeads™ MyOne™ Streptavidin T1, Thermofisher Scientific) in the case of peptide with the affinity towards streptavidin. […]

Substance | binding to IgE of peanut allergic patients
DHPRYGP (IgE epitope-like peptide) [ELP 5] | bind to patients' IgE
DHPRFST (IgE epitope-like peptide) [ELP 6] | bind to patients' IgE
DHPRFNRDNDVA (IgE epitope-like peptide) [ELP 2] | bind to patients' IgE
